# Test results reported in US8093299B2, “Methods of treating bowel disorders” (Amgen Inc., priority 2007, dated 2012).
# “And” between values parts separate entries of the source, which are not always exact repeats. Identical values can stand only once. Like-named read-outs stand apart in the source and are kept apart here.
# What was measured:
# [1] = test system: rat unstripped colonic sheets (enteric nervous system activity)
# IP-10 = experiment: Serum IP-10 in mdr1a-/- colitis study; format: in vivo, mouse; details: treatment groups vs vehicle treated animals
# Description: (§1) All mice were necropsied on day 38 post initial inoculation. Mice were euthanized by CO2 asphyxiation. Blood was obtained by intracardiac puncture and collected in serum separator tubes. Serum was harvested and stored at −80° C. Colons were dissected below the cecum and just above the anus, and the contents of the lumen were removed. Sections of the proximal, middle, and distal colon regions were fixed in 10% neutral buffered formalin for histopathological analysis.
# (§2) Serum clinical chemistry analysis was performed on the Olympus AU400 using standard tests and protocols. Calcium and phosphorus measurements were performed on undiluted serum for all samples. Serum cytokines and chemokines were assayed by Lincoplex mouse cytokine/chemokine muliplex immunoassasy (Millipore; Billerica, Mass.) per manufacturer instructions.
# (§3) Results for serum analytes were expressed as the mean±standard error of the mean (SEM). A one-way ANOVA with Tukey's post test was performed using GraphPad Prism. A p-value of 0.05 was used in the calculation to determine whether there were significant differences between any two groups. Results for disease onset were expressed as a standard survival curve. A Log-Rank (Mantel-Cox) Test was performed using GraphPad Prism to determine significance. A p-value of 0.05 was used in the calculation to determine whether there were significant differences between any two groups. Results for clinical score and histology score were expressed as the mean±SEM. A Cochran-Mantel-Haenszel mean score test was performed using SAS software. A p-value of 0.05 was used in the calculation to determine whether there were significant differences between any two groups.
# [2] = Serum calcium and phosphorus in mdr1a-/- colitis study; format: in vivo, mouse; details: 10 mg/kg PO daily; day 38
# Description: as §1, §2, §3
# [3] = test system: colitis in mdr1a-/- mice induced by H. bilis; experiment: Colitis in mdr1a-/- mice infected with Helicobacter bilis (clinical score, disease onset, histology); format: in vivo, mouse
# [4] = test system: 5% DSS induced colitis in SJL/J mice; experiment: DSS-induced colitis in mice, histopathologic inflammation score of large intestine; format: in vivo, mouse; details: 5% DSS 9 days, SJL/J mice; oral; Compound B 10 mg/kg, FK 506 1 mg/kg
# Excerpt: Animals. Female SJL/J mice aged 8-10 weeks were used for this study, purchased from Jackson Laboratories (Bar Harbour, Me.). Female Spraque-Dawley rats (approximately 150-300 grams) were purchased from Charles River Laboratories Inc. (Wilmington, Mass.). Mdr1a−/− mice (FVB.129P2-Abcb1a^tm1BorN7), weight 20-21 g, 8 weeks at initiation of experiments, were housed and maintained (5 per cage) in the animal facility at Amgen Washington. All animals were cared for according to the standard protocols of the Amgen Institutional Animal Care and Use Committee.
# Chemical reagents. Dextran sodium sulfate (DSS) with molecular mass 36-50 kDa was purchased from ICN Chemicals, Aurora, Ohio. The DSS solution was prepared as a 5% w/v solution in sterile water (Baxter Healthcare Corporation) and sterile filtered through a 0.45 μm filter before being added to drinking water. Water for the negative control groups was similarly filtered. FK506, (also known as Tacrolimus, active ingredient in Prograf®), chemical name [3S-[3R*[E(1S*,3S*,4S*)],4S*,5R*,8S*,9E,12R*,14R*,15S*,16R*,18S*,19S*,26aR*]]-5,6,8,11,12,13,14,15,16,17,18,19,24,25,26,26a-hexadecahydro-5,19-dihydroxy-3-[2-(4-hydroxy-3-methoxycyclohexyl)-1-methylethenyl]-14,16-dimethoxy-4,10,12,18-tetramethyl-8-(2-propenyl)-15,19-epoxy-3H-pyrodi[2,1-c][1,4]oxaazacyclotricosine-1,7,20,21(4H, 23H)-tetrone monohydrate, was used as a positive control for the inflammation treatment. Tacrolimus is a macrolide immunosuppressant produced by Streptomyces tsukubaensis. The solution of FK506 (Prograf®, Astellas) was prepared as follows: 0.1 mg/ml solution in phosphate buffered saline (PBS) was prepared by diluting 5 mg/ml stock solution. The animals were dosed with FK506 at 1 mg/kg in 200 μl of PBS.
# Calcimimetic solutions (Compound A, 3-(2-chlorophenyl)-N-((1R)-1-(3-(methyloxy)phenyl)ethyl)-1-propanamine, Compound B, (1R)-N-((6-(methyloxy)-4′-(trifluoromethyl)-3-biphenylyl)methyl)-1-phenylethanamine, Compound C, N-(2-chloro-5-((((1R)-1-phenylethyl)amino)methyl)phenyl)-5-methyl-3-isoxazolecarboxamide, and Compound D, N-(2-chloro-5-((((1R)-1-phenylethyl)amino)methyl)phenyl)-2-pyridinecarboxamide) were formulated and dosed in free base equivalents at volumes determined by the pharmacologist. Formulation vehicle was 20% (w/v) Captisol (β-Cyclodextrin Sulfobutyl Ether Sodium Salt, Research Grade from CyDex, Inc.) in water with a final pH of 2.0-2.2 at room temperature, adjusted with HCl and NaOH as required. Final concentrations of DMSO never exceeded 0.1% (v/v).
# DSS colitis in mice. All experiments were performed on groups of 8 to 10 SJL-J mice, housed in the same cage. For disease induction, mice were given a 5% DSS ad libitum as drinking water for 9 days.
# Postmortem evaluation. Mice and rats were euthanized by CO2 asphyxiation. The large intestine were removed from the carcass, evaluated for gross lesions and three individual non-adjacent segments of proximal, middle and distal large intestine 2 centimeters long were immersed in the Zinc Formalin fix for 24 hours. At the end of 24 hours the sections were washed with tap water and put into 70% ethanol. Each section was then cut into three 3 mm pieces (9 pieces per animal), processed into paraffin blocks, and sections were cut in 5 μm sections and stained with hematoxylin and eosin.
# Histopathologic changes of the proximal, middle, and distal small and large intestine was scored as a global assessment of inflammation based on inflammatory infiltrate, edema, mucosal erosions or ulcerations as described in Table 6.
# For disease induction, treated mice were given 5% DSS in water ad libitum as drinking water for 9 days as described in Example 1 and were concurrently treated orally during that period with one of the treatments listed in Table 8.
# FIG. 1 and Table 8 summarize the effect of the calcimimetic compound B on colonic inflammation in 5% DSS induced colitis. Animals were euthanized with carbon dioxide on day nine post treatment. […]
# [5] = Compound A 10 μM, bumetanide 100 μM, proximal and distal colon
# [6] = 10 mg/kg PO daily, day 38, score 0-4
compound,measurement,setting,value
"CCCCNc1cc(C(=O)O)cc(S(N)(=O)=O)c1Oc1ccccc1 [bumetanide, Bumetanide]","short-circuit current, subsequent addition after 2 μM TTX",[1]; [5],no additional effect
same,"short-circuit current, subsequent addition after 10 μM Compound A","[1]; TTX 2 μM, bumetanide 100 μM, proximal and distal colon",no additional effect
"NC1=N[C@H](O)[C@H]2[C@H]3O[C@]4(O)O[C@@H]([C@@H](O)[C@@]2(N1)[C@@H]4O)[C@]3(O)CO [TTX, Tetrodotoxin]","secretory short-circuit current, agent added first",[1],inhibited the secretory short-circuit current
same,"short-circuit current, subsequent addition after 10 μM Compound A",[1],no additional effect
COc1ccc(CN[C@@H](C)c2ccccc2)cc1-c1ccc(C(F)(F)F)cc1 [S-Compound B],elevation of serum IP-10,IP-10,less elevation
same,serum calcium levels compared to any other group,[2],not statistically different
same,serum phosphorus compared to CTLA4 treated animals,[2],significant reduction
same,day on which animals began showing clinical symptoms (disease onset),[3]; 10 mg/kg PO daily,27 days
same,number of animals with clinical signs of disease at onset day,"[3]; 10 mg/kg PO daily, day 27, n=5",two
same,Average LI score,"[3]; 10 mg/kg PO daily, day 38",1.8
same,"GI Inflammation LI DISTAL, Segment Mean","[3]; 10 mg/kg PO daily, day 38",0.60
same,"GI Inflammation LI MIDDLE, Segment Mean","[3]; 10 mg/kg PO daily, day 38",0.60
same,"GI Inflammation LI PROXIMAL, Segment Mean","[3]; 10 mg/kg PO daily, day 38",0.60
same,"Total LI score (Max = 12), individual animals","[3]; 10 mg/kg PO daily, day 38",0 (4×) and 9
same,"GI Inflammation LI DISTAL, individual animals",[3]; [6],0 (4×) and 3
same,"GI Inflammation LI MIDDLE, individual animals",[3]; [6],0 (4×) and 3
same,"GI Inflammation LI PROXIMAL, individual animals",[3]; [6],0 (4×) and 3
same,clinical score of the animal with clinical symptoms (max 8),"[3]; 10 mg/kg PO daily, final day",4
same,total large intestine (LI) scores of the colitic animals (max 12),"[3]; R-Compound B 10 and 3 mg/kg groups, S-Compound B 10 mg/kg",9
same,number of animals with clinical symptoms of disease on the final day of the study,"[3]; day 38, per treatment group (S-Compound B 10 mg/kg, n=5; R-Compound B 10 mg/kg and 3 mg/kg, n=10 each)",one
same,animals with colitis / colon pathology by histology,"[3]; per group: R-Compound B 10 and 3 mg/kg each, S-Compound B 10 mg/kg",1 out of 5
"C=CC[C@@H]1/C=C(\C)C[C@H](C)C[C@H](OC)[C@H]2O[C@@](O)(C(=O)C(=O)N3CCCC[C@H]3C(=O)O[C@H](/C(C)=C/[C@@H]3CC[C@@H](O)[C@H](OC)C3)[C@H](C)[C@@H](O)CC1=O)[C@H](C)C[C@@H]2OC (relative stereo) [FK 506, [3S-[3R*[E(1S*,3S*,4S*)],4S*,5R*,8S*,9E,12R*,14R*,15S*,16R*,18S*,19S*,26aR*]]-5,6,8,11,12,13,14,15,16,17,18,19,24,25,26,26a-hexadecahydro-5,19-dihydroxy-3-[2-(4-hydroxy-3-methoxycyclohexyl)-1-methylethenyl]-14,16-dimethoxy-4,10,12,18-tetramethyl-8-(2-propenyl)-15,19-epoxy-3H-pyrodi[2,1-c][1,4]oxaazacyclotricosine-1,7,20,21(4H, 23H)-tetrone monohydrate, reference compound]",Animals with colonic inflammation/total animals,[4],10/10
"COc1cccc([C@@H](C)NCCCc2ccccc2Cl)c1 [Compound A, 3-(2-chlorophenyl)-N-((1R)-1-(3-(methyloxy)phenyl)ethyl)-1-propanamine]","short-circuit current, subsequent addition after 2 μM TTX",[1]; [5],no additional effect
same,"secretory short-circuit current, agent added first","[1]; over 15 minutes, proximal and distal colon, TTX 2 μM, Compound A 10 μM",inhibited the secretory short-circuit current
